Laboratory results published in US20080063628A1, “METHODS TO PROMOTE CELL DIFFERENTIATION” (priority 2006, published 2008).

Tested on: late passage (P11) pancreatic-derived stromal cell line
Assay: Two high dose trichostatin A treatments (first 48 h), gene expression by RT-PCR (Example 9);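 for HNF-3 beta RT-PCR detection cycle: lower cycle number means higher gene expression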;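 for glucagon RT-PCR detection cycle: lower cycle number means higher gene expression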
Assay type: cell-based, human
Settings: for HNF-3 beta gene expression / Insulin gene expression / Pdx-1 gene expression / glucagon gene expression: 5 μM 0-48 h + 96-120 h; for HNF-3 beta RT-PCR detection cycle / Pdx-1 RT-PCR detection cycle / glucagon RT-PCR detection cycle: 5.0 μM
Procedure: Several cell lines obtained from different amniotic fluid specimens (see Example 14) and pancreas donors (see Example 13) were tested with similar results. Two lines at similar passage number but derived from different amniotic fluid specimens are shown in Table VIII-A and Table VIII-B for this example. One of these cell lines was also used in examples 2 and 4 above. In addition, this example also contains comparison data in Table VIII-C and Table VIII-D for a single pancreatic-derived stromal line grown to early and late passage number.
Amniotic fluid derived cells or pancreatic-derived stromal cells were seeded into 24-well tissue culture plates at a density of 5000/cm^2 and cultured in AMNIOMAX (Invitrogen) or DMEM with 10% FBS respectively under standard cell culture conditions until confluent. After reaching confluence, amniotic fluid derived cells were treated at time 0 hours with a dose of 1.25 μM trichostatin A, and pancreatic-derived stromal cells were treated with a dose of 5.0 μM trichostatin A solubilized in DMSO and medium. At time 48 hours, cell cultures underwent a complete medium change to remove all traces of trichostatin A. At time 96 hours, cell cultures were re-fed with fresh medium and received a second dose of trichostatin A at the same concentration as used previously. At time 120 hours, cell cultures again underwent a complete medium change and were cultured for an additional 24 hours or […] total incubation time. Samples were taken for RT-PCR at the times indicated in Table IX-A to D. RNA samples were obtained daily from the start of the experiment. Culture medium was removed, and cells were washed with PBS then collected in RLT with β-mercaptoethanol (Qiagen). RNA was purified using the RNeasy Mini Kit (Qiagen) and RNA quantity and quality was determined using a spectrophotometer. cDNA was made using the iScript cDNA synthesis kit (BioRad). Human pancreas cDNA was included as a control. Results were normalized against GAPDH expression levels.
Gene expression levels of Sox17, HNF-3 beta, Pdx-1, insulin, and glucagon were analyzed in amniotic-derived cells, while expression levels of glucagon, insulin, HNF-3 beta, and Pdx-1 were analyzed in pancreas-derived cells. Samples of 20 ng cDNA was used in each Real-Time PCR reaction. RT-PCR was performed on the Applied Biosystems 7500, according to the methods described in Example 15. The data were analyzed using the accompanying software.
Real-time PCR amplifcation and quantitative analysis. Unless otherwise stated, all reagents were purchased from Applied Biosystems. Real-time PCR reactions were performed using the ABI PRISM™ 7500 Sequence Detection System. TAQMAN™ FAST UNIVERSAL PCR MASTER MIX™ (ABI, CA) was used with 20 ng of reverse transcribed RNA in a total reaction volume of 20 μl. Each cDNA sample was run in duplicate to allow correction of pipetting errors. Primers and FAM-labeled TAQMAN™ probes were used at concentrations of 200 nM. The level of expression for each target gene was normalized using the pre-developed Applied Biosystem's human glyceraldehyde-3-phosphate dehydrogenase (GAPDH) endogenous control kit. Primers and probes were designed using either ABI PRISM PRIMER EXPRESS™ software or a pre-developed ABI gene analysis kit. For each gene, either one of the primers or the probe were designed to be exon-boundary spanning. This eliminated the possibility of the primers/probe binding to any genomic DNA present. The primer and probe sets are listed as follows: Pdx-1 (Hs00426216), Insulin (Hs00355773), glucagon (Hs00174967), and FoxA2 (HNF 3-beta) (Hs00232764). The remaining primers were designed using the PRIMERS program (ABI, CA). After an initial 95° C. incubation for 20 sec, samples were cycled 40 times in two stages: a denaturation step at 95° C. for 3 sec, followed by an annealing/extension step at 60° C. for 30 sec. […]

[1] = for 48 hours following addition
[2] = once trichostatin A was added again

CC(/C=C/C(=O)NO)=C\[C@@H](C)C(=O)c1ccc(N(C)C)cc1 [trichostatin A]
HNF-3 beta gene expression (24 hrs): +++ (detectable at less than 35 cycles by RT-PCR with SE less than 0.9) | Insulin gene expression (24 hrs): nd (not detectable at >40 cycles by RT-PCR) | Pdx-1 gene expression (24 hrs): + (detectable between 35 and 40 cycles by RT-PCR) | glucagon gene expression (24 hrs): +++ (detectable at less than 35 cycles by RT-PCR with SE less than 0.9) | HNF-3 beta gene expression (48 hrs): +++ (detectable at less than 35 cycles by RT-PCR with SE less than 0.9) | Insulin gene expression (48 hrs): nd (not detectable at >40 cycles by RT-PCR) | Pdx-1 gene expression (48 hrs): +++ (detectable at less than 35 cycles by RT-PCR with SE less than 0.9) | glucagon gene expression (48 hrs): +++ (detectable at less than 35 cycles by RT-PCR with SE less than 0.9) | HNF-3 beta gene expression (72 hrs): nd (not detectable at >40 cycles by RT-PCR) | Insulin gene expression (72 hrs): nd (not detectable at >40 cycles by RT-PCR) | Pdx-1 gene expression (72 hrs): nd (not detectable at >40 cycles by RT-PCR) | glucagon gene expression (72 hrs): + (detectable between 35 and 40 cycles by RT-PCR) | HNF-3 beta gene expression (96 hrs): nd (not detectable at >40 cycles by RT-PCR) | Insulin gene expression (96 hrs): nd (not detectable at >40 cycles by RT-PCR) | Pdx-1 gene expression (96 hrs): nd (not detectable at >40 cycles by RT-PCR) | glucagon gene expression (96 hrs): nd (not detectable at >40 cycles by RT-PCR) | HNF-3 beta gene expression (120 hrs): +++ (detectable at less than 35 cycles by RT-PCR with SE less than 0.9) | Insulin gene expression (120 hrs): + (detectable between 35 and 40 cycles by RT-PCR) | Pdx-1 gene expression (120 hrs): +++ (detectable at less than 35 cycles by RT-PCR with SE less than 0.9) | glucagon gene expression (120 hrs): + (detectable between 35 and 40 cycles by RT-PCR) | HNF-3 beta RT-PCR detection cycle (after addition): 32 cycles | Pdx-1 RT-PCR detection cycle (after addition): 31 cycles | glucagon RT-PCR detection cycle (after addition (for 48 hours)): 33 cycles | glucagon RT-PCR detection cycle (following the removal): 37 cycles | HNF-3 beta RT-PCR detection cycle [1]: 33 cycles | Pdx-1 RT-PCR detection cycle [1]: 32 cycles | HNF-3 beta RT-PCR detection cycle [2]: 34 cycles | Pdx-1 RT-PCR detection cycle [2]: 33 cycles | glucagon RT-PCR detection cycle (second treatment): 35 cycles
